Reference: ChEMBL document CHEMBL4507317, “Data for DCP probe BAY-899” (2021)

Columns and labels:
[1] = molecular target: 5-hydroxytryptamine receptor 2A (Homo sapiens, UniProt P28223); assay: GPCRScan assay: inhibition of 5-HT2A; design: radioligand conc. used [nm] 1.2 – 2.4, parental cells HEKT
[2] = molecular target: Lutropin-choriogonadotropic hormone receptor (Homo sapiens, UniProt P22888); assay: Cell-based assay (LH Antagonism)
[3] = test system: Tyrosine-protein kinase ABL1 (Homo sapiens), P00519 [Q252H]; details: Compound concentration 1000.0 nM
[4] = molecular target: Serine/threonine-protein kinase 36 (Homo sapiens) (UniProt Q9NRP7); details: Compound concentration 1000.0 nM
[5] = molecular target: Delta-type opioid receptor (Homo sapiens) (UniProt P41143); details: Compound concentration 10.0 uM
[6] = molecular target: Muscarinic acetylcholine receptor M3 (Homo sapiens) (UniProt P20309); details: Compound concentration 10.0 uM
[7] = molecular target: Adenosine receptor A3 (Homo sapiens) (UniProt P0DMS8); assay: A3 Eurofins Bayer panel; details: Compound concentration 10.0 uM
Chain of Adenosine receptor A3 (Homo sapiens) (P0DMS8 whole entry): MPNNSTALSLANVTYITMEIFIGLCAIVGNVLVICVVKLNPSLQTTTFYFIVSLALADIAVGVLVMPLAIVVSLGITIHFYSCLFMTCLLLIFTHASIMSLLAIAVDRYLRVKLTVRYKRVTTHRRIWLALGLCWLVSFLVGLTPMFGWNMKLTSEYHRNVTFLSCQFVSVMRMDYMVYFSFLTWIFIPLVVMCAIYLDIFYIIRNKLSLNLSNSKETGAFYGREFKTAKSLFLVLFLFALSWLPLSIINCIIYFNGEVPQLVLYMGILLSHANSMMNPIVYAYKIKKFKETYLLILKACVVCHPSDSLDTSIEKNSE

[8] = molecular target: T1, Alpha-1A adrenergic receptor (Homo sapiens) (UniProt P35348); assay: alpha 1A Eurofins Bayer panel; details: Compound concentration 10.0 uM
T1 sequence (whole entry): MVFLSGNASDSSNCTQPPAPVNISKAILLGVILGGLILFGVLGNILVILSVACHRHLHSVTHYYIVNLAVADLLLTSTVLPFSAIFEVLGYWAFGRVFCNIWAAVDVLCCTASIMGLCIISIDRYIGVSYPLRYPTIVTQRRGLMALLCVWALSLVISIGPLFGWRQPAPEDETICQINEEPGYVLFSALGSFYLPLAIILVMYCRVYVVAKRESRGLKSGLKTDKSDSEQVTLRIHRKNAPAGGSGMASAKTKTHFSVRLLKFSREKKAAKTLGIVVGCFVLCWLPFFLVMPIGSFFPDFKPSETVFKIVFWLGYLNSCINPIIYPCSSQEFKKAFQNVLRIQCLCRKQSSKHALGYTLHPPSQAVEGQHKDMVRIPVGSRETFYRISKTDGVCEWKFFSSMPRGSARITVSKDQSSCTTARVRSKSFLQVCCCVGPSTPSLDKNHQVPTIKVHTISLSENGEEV

[9] = molecular target: Cannabinoid receptor 1 (Homo sapiens) (UniProt P21554); assay: CB1 Eurofins Bayer panel; details: Compound concentration 10.0 uM
[10] = molecular target: D(1A) dopamine receptor (Homo sapiens) (UniProt P21728); assay: D1 Eurofins Bayer panel; details: Compound concentration 10.0 uM
[11] = molecular target: D(2) dopamine receptor (Homo sapiens) (UniProt P14416); assay: D2L Eurofins Bayer panel; details: Compound concentration 10.0 uM
Chain of D(2) dopamine receptor (Homo sapiens) (P14416 whole entry): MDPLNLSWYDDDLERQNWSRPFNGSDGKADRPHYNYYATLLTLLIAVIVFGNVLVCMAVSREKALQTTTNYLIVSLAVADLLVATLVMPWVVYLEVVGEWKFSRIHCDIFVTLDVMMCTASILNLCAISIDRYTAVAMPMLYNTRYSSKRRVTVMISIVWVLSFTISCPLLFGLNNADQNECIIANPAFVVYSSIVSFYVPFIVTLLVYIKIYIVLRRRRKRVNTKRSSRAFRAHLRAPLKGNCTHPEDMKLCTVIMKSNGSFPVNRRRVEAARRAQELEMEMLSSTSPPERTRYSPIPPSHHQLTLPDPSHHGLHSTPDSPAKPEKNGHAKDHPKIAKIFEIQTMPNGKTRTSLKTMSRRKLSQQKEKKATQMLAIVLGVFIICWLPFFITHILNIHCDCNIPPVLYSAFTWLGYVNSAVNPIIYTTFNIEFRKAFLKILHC

[12] = molecular target: Histamine H1 receptor (Homo sapiens) (UniProt P35367); assay: H1 Eurofins Bayer panel; details: Compound concentration 10.0 uM
Chain of Histamine H1 receptor (Homo sapiens) (P35367 whole entry): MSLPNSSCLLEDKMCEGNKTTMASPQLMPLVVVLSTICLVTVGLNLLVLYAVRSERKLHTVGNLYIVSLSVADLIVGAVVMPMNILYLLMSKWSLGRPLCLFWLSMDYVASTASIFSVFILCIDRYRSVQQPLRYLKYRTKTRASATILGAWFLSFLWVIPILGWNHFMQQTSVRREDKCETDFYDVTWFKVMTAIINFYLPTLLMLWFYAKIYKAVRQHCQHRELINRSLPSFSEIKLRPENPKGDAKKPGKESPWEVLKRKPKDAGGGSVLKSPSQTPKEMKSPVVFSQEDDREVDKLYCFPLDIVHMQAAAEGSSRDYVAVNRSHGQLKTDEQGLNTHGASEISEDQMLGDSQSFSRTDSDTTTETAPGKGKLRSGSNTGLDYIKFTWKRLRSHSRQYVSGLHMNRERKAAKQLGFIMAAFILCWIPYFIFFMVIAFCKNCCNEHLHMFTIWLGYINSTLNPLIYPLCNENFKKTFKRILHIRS

[13] = molecular target: Histamine H2 receptor (Homo sapiens) (UniProt P25021); assay: H2 Eurofins Bayer panel; details: Compound concentration 10.0 uM
Chain of Histamine H2 receptor (Homo sapiens) (P25021 whole entry): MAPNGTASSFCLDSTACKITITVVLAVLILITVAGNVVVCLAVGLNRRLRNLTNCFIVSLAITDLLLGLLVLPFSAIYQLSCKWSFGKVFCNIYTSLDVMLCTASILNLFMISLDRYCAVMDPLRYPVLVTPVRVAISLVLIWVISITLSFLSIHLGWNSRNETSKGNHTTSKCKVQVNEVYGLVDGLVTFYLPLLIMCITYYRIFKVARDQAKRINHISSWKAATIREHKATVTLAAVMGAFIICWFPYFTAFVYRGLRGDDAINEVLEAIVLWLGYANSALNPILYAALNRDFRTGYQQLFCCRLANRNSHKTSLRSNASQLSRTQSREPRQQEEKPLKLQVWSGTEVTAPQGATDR

[14] = molecular target: Histamine H3 receptor (Homo sapiens) (UniProt Q9Y5N1); assay: H3 Eurofins Bayer panel; details: Compound concentration 10.0 uM
Chain of Histamine H3 receptor (Homo sapiens) (Q9Y5N1 whole entry): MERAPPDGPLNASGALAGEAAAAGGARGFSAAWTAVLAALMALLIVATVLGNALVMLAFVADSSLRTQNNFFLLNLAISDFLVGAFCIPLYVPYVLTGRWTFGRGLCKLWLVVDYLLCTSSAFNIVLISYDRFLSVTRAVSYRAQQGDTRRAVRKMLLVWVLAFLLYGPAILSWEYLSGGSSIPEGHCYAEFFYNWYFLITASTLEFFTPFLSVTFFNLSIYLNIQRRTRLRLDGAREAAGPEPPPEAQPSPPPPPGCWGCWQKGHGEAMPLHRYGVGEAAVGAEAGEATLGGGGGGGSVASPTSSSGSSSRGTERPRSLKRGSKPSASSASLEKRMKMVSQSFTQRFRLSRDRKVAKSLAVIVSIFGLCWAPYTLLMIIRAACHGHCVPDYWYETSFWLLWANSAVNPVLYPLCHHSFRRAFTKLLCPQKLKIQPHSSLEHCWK

[15] = molecular target: Motilin receptor (Homo sapiens) (UniProt O43193); assay: Motilin Eurofins Bayer panel; details: Compound concentration 10.0 uM
Chain of Motilin receptor (Homo sapiens) (O43193 whole entry): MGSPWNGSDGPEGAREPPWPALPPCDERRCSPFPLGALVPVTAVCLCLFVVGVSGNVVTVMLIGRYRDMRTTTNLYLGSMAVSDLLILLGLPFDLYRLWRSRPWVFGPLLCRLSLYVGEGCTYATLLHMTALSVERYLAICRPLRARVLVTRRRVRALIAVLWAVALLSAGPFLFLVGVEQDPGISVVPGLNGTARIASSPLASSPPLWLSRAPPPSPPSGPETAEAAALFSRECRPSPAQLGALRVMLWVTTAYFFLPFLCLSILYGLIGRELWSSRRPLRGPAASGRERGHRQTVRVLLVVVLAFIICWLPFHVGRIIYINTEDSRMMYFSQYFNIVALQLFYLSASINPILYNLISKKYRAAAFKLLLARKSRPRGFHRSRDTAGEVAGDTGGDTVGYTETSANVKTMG

[16] = molecular target: T2, Muscarinic acetylcholine receptor M1 (Homo sapiens) (UniProt P11229); assay: M1 Eurofins Bayer panel; details: Compound concentration 10.0 uM
T2 sequence (whole entry): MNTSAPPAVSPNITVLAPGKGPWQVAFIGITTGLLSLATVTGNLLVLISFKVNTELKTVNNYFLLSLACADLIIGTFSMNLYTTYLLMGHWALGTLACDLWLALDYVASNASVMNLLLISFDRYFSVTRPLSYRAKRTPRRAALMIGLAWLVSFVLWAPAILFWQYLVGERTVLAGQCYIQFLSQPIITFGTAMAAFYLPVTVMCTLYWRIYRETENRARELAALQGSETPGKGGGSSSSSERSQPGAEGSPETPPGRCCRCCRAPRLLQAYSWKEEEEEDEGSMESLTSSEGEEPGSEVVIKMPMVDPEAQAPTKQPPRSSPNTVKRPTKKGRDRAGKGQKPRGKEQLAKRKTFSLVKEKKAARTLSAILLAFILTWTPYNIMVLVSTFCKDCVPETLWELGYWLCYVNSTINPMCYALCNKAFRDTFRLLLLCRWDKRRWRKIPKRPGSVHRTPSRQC

[17] = molecular target: Substance-P receptor (Homo sapiens) (UniProt P25103); assay: NK1 Eurofins Bayer panel; details: Compound concentration 10.0 uM
Chain of Substance-P receptor (Homo sapiens) (P25103 whole entry): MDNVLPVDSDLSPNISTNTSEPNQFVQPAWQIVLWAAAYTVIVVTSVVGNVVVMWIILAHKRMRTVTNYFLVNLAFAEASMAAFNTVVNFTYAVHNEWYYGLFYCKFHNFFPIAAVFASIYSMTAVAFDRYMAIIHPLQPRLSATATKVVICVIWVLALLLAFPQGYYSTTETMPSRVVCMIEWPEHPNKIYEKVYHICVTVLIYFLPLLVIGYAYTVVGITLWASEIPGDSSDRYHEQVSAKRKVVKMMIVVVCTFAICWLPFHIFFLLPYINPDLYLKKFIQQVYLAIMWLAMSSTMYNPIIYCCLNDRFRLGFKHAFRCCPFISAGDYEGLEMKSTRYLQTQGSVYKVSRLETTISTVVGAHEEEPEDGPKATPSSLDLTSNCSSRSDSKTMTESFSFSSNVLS

[18] = molecular target: Prostaglandin E2 receptor EP3 subtype (Homo sapiens) (UniProt P43115); assay: EP3 Eurofins Bayer panel; details: Compound concentration 10.0 uM
Chain of Prostaglandin E2 receptor EP3 subtype (Homo sapiens) (P43115 whole entry): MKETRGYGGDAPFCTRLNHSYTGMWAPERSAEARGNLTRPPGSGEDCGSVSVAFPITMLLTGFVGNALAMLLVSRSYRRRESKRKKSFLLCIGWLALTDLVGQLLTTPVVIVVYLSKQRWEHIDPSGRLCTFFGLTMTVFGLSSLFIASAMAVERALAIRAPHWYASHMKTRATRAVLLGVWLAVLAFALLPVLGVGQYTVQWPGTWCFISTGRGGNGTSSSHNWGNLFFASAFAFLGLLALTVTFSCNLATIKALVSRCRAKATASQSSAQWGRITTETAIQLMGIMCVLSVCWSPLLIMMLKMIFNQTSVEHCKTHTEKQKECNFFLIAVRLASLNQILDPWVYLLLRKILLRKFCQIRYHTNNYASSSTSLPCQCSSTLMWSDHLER

[19] = molecular target: P2Y purinoceptor 2 (Homo sapiens) (UniProt P41231); assay: P2Y2 Eurofins Bayer panel; details: Compound concentration 10.0 uM
Chain of P2Y purinoceptor 2 (Homo sapiens) (P41231 whole entry): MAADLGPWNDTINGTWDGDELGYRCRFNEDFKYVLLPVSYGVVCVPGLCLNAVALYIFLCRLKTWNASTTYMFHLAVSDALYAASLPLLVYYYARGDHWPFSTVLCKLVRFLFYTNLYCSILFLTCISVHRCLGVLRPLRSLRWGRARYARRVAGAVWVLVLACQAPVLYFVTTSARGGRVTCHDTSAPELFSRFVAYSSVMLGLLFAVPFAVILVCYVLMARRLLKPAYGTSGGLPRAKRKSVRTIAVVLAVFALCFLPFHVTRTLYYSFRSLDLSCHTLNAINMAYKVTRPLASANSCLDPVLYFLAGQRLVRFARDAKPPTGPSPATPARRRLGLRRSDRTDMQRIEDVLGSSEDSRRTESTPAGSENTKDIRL

[20] = molecular target: T3, 5-hydroxytryptamine receptor 1A (Homo sapiens) (UniProt P08908); assay: 5-HT1A Eurofins Bayer panel; details: Compound concentration 10.0 uM
T3 sequence (whole entry): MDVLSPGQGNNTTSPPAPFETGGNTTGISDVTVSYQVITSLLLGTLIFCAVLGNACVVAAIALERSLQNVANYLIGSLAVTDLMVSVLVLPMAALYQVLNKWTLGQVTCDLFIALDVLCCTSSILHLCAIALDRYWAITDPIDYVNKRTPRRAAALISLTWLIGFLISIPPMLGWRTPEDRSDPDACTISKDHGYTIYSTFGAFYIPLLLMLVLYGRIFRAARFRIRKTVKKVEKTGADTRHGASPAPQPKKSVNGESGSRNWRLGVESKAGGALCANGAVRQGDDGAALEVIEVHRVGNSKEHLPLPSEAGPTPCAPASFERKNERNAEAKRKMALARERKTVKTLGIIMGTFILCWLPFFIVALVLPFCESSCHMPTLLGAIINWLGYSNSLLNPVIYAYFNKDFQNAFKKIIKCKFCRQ

[21] = molecular target: 5-hydroxytryptamine receptor 2B (Homo sapiens, UniProt P41595); assay: 5-HT2B Eurofins Bayer panel; details: Compound concentration 10.0 uM
Chain of 5-hydroxytryptamine receptor 2B (P41595 whole entry): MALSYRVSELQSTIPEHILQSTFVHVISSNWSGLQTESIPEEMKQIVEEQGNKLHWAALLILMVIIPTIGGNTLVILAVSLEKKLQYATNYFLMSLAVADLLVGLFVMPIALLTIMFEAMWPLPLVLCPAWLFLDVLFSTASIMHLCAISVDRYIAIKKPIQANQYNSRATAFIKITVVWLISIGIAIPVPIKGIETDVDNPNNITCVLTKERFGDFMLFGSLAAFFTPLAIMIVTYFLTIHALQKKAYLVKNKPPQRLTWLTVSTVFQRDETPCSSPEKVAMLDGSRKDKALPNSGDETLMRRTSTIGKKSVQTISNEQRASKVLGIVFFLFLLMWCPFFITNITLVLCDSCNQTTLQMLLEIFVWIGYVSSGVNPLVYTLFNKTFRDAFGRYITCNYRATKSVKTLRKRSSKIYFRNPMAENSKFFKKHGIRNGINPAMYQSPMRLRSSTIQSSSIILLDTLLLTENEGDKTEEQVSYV

[22] = molecular target: 5-hydroxytryptamine receptor 6 (Homo sapiens) (UniProt P50406); assay: 5-HT6 Eurofins Bayer panel; details: Compound concentration 10.0 uM
Chain of 5-hydroxytryptamine receptor 6 (Homo sapiens) (P50406 whole entry): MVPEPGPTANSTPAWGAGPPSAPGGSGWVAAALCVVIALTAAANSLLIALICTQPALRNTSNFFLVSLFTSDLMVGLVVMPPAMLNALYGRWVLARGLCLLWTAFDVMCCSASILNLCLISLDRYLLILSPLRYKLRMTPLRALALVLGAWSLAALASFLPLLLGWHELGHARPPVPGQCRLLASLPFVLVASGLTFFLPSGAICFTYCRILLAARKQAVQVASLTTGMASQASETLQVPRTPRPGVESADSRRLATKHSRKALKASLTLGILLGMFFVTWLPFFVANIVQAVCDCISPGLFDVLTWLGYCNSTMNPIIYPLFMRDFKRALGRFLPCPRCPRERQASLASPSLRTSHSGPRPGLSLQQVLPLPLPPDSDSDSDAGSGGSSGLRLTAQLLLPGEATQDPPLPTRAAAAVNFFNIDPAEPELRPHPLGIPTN

[23] = molecular target: Somatostatin receptor type 4 (Homo sapiens) (UniProt P31391); assay: sst4 Eurofins Bayer panel; details: Compound concentration 10.0 uM
Chain of Somatostatin receptor type 4 (Homo sapiens) (P31391 whole entry): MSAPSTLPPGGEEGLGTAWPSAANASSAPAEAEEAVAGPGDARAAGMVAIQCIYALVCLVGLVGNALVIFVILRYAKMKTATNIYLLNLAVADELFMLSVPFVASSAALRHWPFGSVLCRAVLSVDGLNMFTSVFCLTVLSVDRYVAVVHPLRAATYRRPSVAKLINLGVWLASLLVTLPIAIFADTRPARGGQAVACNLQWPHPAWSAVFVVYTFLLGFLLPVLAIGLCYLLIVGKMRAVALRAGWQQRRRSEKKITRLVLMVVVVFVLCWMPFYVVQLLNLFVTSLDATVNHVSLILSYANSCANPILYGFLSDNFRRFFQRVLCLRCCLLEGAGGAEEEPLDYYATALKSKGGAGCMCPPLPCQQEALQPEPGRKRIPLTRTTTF

[24] = test system: Receptor-type tyrosine-protein kinase FLT3 (Homo sapiens), P36888 [K663Q]; details: Compound concentration 1000.0 nM
[25] = molecular target: 5-hydroxytryptamine receptor 7 (Homo sapiens) (UniProt P34969); details: Compound concentration 10.0 uM

O=C(Nc1ccc(Oc2ccc(F)cc2)cc1)N1CCc2ncccc2[C@H]1c1ccc(F)cc1 [BAY-897]
Ki [1]: 3.67 µM
IC50 [2]: > 16 µM (not active)
residual activity [3]: 90%
residual activity [4]: 89%
inhibition [5]: 32.7%
inhibition [6]: -3.47%

O=C(Nc1cnc(Oc2ccc(F)cc2)nc1)N1CCc2ncccc2[C@@H]1c1ccc(F)cc1 [BAY-899]
Activation (% of control) [7]: 25%
Inhibition (% of control) [7]: -6%
Activation (% of control) [8]: 2%
Inhibition (% of control) [8]: 45%
Activation (% of control) [9]: 52%
Inhibition (% of control) [9]: 4%
Activation (% of control) [10]: -1%
Inhibition (% of control) [10]: 15%
Activation (% of control) [11]: -1%
Inhibition (% of control) [11]: 67%
Activation (% of control) [12]: -4%
Inhibition (% of control) [12]: 4%
Activation (% of control) [13]: -2%
Inhibition (% of control) [13]: 34%
Activation (% of control) [14]: 38%
Inhibition (% of control) [14]: -19%
Activation (% of control) [15]: -1%
Inhibition (% of control) [15]: 28%
Activation (% of control) [16]: 1%
Inhibition (% of control) [16]: 32%
Activation (% of control) [17]: -3%
Inhibition (% of control) [17]: 24%
Activation (% of control) [18]: -1%
Inhibition (% of control) [18]: -5%
Activation (% of control) [19]: -1%
Inhibition (% of control) [19]: 8%
Activation (% of control) [20]: 1%
Inhibition (% of control) [20]: 0%
Activation (% of control) [21]: 1%
Inhibition (% of control) [21]: 18%
Activation (% of control) [22]: -1%
Inhibition (% of control) [22]: 12%
Activation (% of control) [23]: 23%
Inhibition (% of control) [23]: 6%
residual activity [3]: 91%
residual activity [24]: 100%
residual activity [4]: 91%
inhibition [25]: 2.63%
